Assay results as given in US20190142832A1, “Marker for Cancer Prognosis and Methods Related Thereto” (National Jewish Health, priority 2007, published 2019).
Like-named read-outs stand apart in the source and are kept apart here.

Assays:
HLMVEC [1] = assay: [3H]-thymidine incorporation proliferation assay in HLMVEC; type: cell-based, human; settings: serum-starved, varying concentrations, 24 h
Protocol: Proliferation of HLMVEC was measured using [^3H]-thymidine incorporation. About 20,000 cells were plated in each well of a 24-well plate in endothelial cell complete medium. After 24 h, cells were washed once with HBSS and serum-starved in EBM-2 medium containing 1% FBS, hydrocortisone, ascorbic acid and GA-1000. After 24 h, cells were incubated with [^3H] thymidine (1 μCi/well) in the presence or absence of the adenosine A2A receptor agonist, CGS-21680, at varying concentrations for an additional 24 h. Subsequently, cells were washed twice with ice-cold PBS, precipitated with 0.1 N perchloric acid, and solubilized with 0.01 N NaOH containing 0.1% SDS prior to scintillation counting. Similarly, proliferation was also measured in cells transduced with Ad.A2A or Ad.LacZ at a multiplicity of infection of 10 pfu/cell.

HLMVEC [2] = assay: Matrigel tube formation (branching) assay in HLMVEC; type: cell-based, human
Protocol: Angiogenesis in HLMVEC was assessed using the Matrigel tube formation assay. Growth factor-reduced Matrigel matrix was coated onto 12-well plates and allowed to solidify at 37° C. for 30 min. HLMVEC's were then trypsinized and plated onto the Matrigel in the absence of growth factors or serum and incubated at 37° C. in a CO2 incubator. The A2A receptor agonist, CGS-21680, or the diluent control was included both in the Matrigel matrix and the overlying medium. Four hours after plating of cells, three randomly chosen fields from each well were photographed. Branch points were counted and plotted.

MB114 cells = assay: Tube formation of MB114 cells on collagen gel; type: cell-based, murine; settings: 5 days
Protocol: MB114 cells (a microvascular endothelial cell line) were plated on collagen gel in presence of absence of the A2A receptor agonist CGS-21680 at a density of 80000 cells/well using a 24 well plate. After incubation for 5 days, photos from each well were taken randomly.

PI 3-kinase = PI 3-kinase activity in anti-p85 immunoprecipitate and phospho-Akt Western blot, HLMVEC; type: cell-based, human; settings: 1 μM
Protocol: HLMVECs were cultured on 100 mm dishes. Cells were serum starved for 24 h before treating with 1 μM of CGS-21680 (Adenosine A2A receptor agonist) or the diluent control. Following treatment, lysates were prepared and −500 μg of protein was incubated with 20 μl of anti-p85-conjugated agarose (200 μg anti p85/200 μl agarose) for 2 h, after which the complex was precipitated. PI3-kinase activity was measured in the immunoprecipitate.

[3] = system: adenosine A2A receptor mRNA; assay: Northern blot of adenosine A2A receptor mRNA in human endothelial cells (HLMVEC, HCAEC); type: cell-based
Protocol: To assess the role of adenosine receptors in hypoxia, primary HLMVEC were exposed to air or hypoxia. For detecting mRNA, twenty-four hours post-transduction or treatment, cells were washed twice with Hank's balanced salt solution (HBSS) and harvested in GITC. RNA was purified using the CsCl method as described earlier (Riddle et al., Am J Physiol Lung Cell Mol Physiol 278, L407 (2000). 15 μg total RNA were resolved on 1% formaldehyde-agarose gels and transferred to nylon membranes. Probes used for northern blot were derived from human A2A cDNA and human A2B cDNA kindly provided by Dr. Marlene Jacobson, Merck Research Labs, West Point, Pa. The VEGF cDNA was obtained from the Harvard Proteomic Institute. The cDNA probes were labeled with [^32P]α-dCTP (ICN, Irvine, Calif.) by random priming and hybridized with the membrane for 18 hrs at 42° C. Membranes were then washed and autoradiographed. For loading controls, membranes were stripped of radioactive probe in a 2% glyceraldehyde solution at 80° C. and rehybridized with an end-labeled 28S rRNA oligonucleotide (Ambion, Austin, Tex.). The intensity of the radiolabeled bands was measured using a PhosphorImager running ImageQuant software (Molecular Dynamics, Sunnyvale, Calif.). The same Northern Blot procedure was used in subsequent examples, unless specifically noted otherwise. Protein expression was detected using standard Western Blot methods described in Ahmad, Free Radic Biol Med. 40(7):1108(2006).

A2A receptor mRNA = A2A receptor mRNA expression in mouse derived endothelial cells SVEC and MB114; type: cell-based
Protocol: Primary human lung microvascular endothelial cells (HLMVEC), primary human coronary artery endothelial cells (HCAEC), primary pulmonary artery endothelial cells (HPAEC) and endothelial cell growth medium were obtained from Cambrex (Walkersville, Md.). Dimethyloxlylglycine (DMOG) was obtained from Frontier Scientific, Inc (Logan, Utah). HLMVEC and HCAEC were cultured in endothelial cell basal medium (EBM-2) supplemented with VEGF, human FGF, human EGF, hydrocortisone, ascorbic acid, insulin-like growth factor-1, GA-1000 (gentamycin/amphotericin-B), 5% fetal bovine serum as per the supplier's protocol. Murine brain microvascular endothelial cells (MB114) and SV-40 transformed mouse endothelial cells (SVEC) were cultured in DMEM supplemented with 10% FBS, penicillin and streptomycin. The same culture conditions were used in subsequent examples, unless specifically noted otherwise.
To assess the role of adenosine receptors in hypoxia, primary HLMVEC were exposed to air or hypoxia. […] The intensity of the radiolabeled bands was measured using a PhosphorImager running ImageQuant software (Molecular Dynamics, Sunnyvale, Calif.). […] Protein expression was detected using standard Western Blot methods described in Ahmad, Free Radic Biol Med. 40(7):1108(2006).

[4] = HLMVEC (donors) and HCAEC, Northern blot

## CCNC(=O)[C@H]1O[C@@H](n2cnc3c(N)nc(NCCc4ccc(CCC(=O)O)cc4)nc32)[C@H](O)[C@@H]1O [CGS-21680]
HLMVEC [1]
  cellular proliferation as assessed by 3[H]thymidine incorporation: increased cellular proliferation in a dose-dependent manner
HLMVEC [2]; Matrigel, 4 h
  cell sprouting / formation of branches relative to control cells: increased cell sprouting resulting in formation of branches
HLMVEC [2]; Matrigel-matrix based assay, branch points 4 h after plating
  increase in branching compared to the diluent control: 37%
MB114 cells
  tube formation: promotes tube formation in a dose dependent manner
PI 3-kinase
  expression of phosphorylated Akt (Western blot): increases expression of phosphorylated Akt
PI 3-kinase; serum starved 24 h
  PI3-kinase activity (phosphorylation of phosphoinositides, PIP3): increased PI3-kinase activity

## [Cl-].[Cl-].[Co+2] [CoCl2]
[3]
  adenosine A2A receptor steady-state mRNA levels: increases adenosine A2A receptor steady-state mRNA levels

## CC(=O)N(O)CCCCCNC(=O)CCC(=O)N(O)CCCCCNC(=O)CCC(=O)N(O)CCCCCN [DFO]
[3]; [4]
  adenosine A2A receptor steady-state mRNA levels: increases adenosine A2A receptor steady-state mRNA levels

## COC(=O)CNC(=O)C(=O)OC [DMOG, Dimethyloxlylglycine]
[3]; [4]
  adenosine A2A receptor steady-state mRNA levels: increases adenosine A2A receptor steady-state mRNA levels
A2A receptor mRNA
  expression of A2A receptor mRNA levels: neither hypoxia nor HIF stabilization by DMOG altered the expression of A2A receptor mRNA levels
